Source: US4299839A, “Novel pesticides and pesticidal compositions cyclopropanecarboxylates and pesticidal method” (priority 1979, dated 1981)

What was measured:
green rice leafhoppers = experiment: Utility Example 1: emulsifiable concentrate sprayed over rice seedlings, green rice leafhopper mortality; format: in vivo; conditions: 30% emulsifiable concentrate diluted 300-fold, 100 ml/pot, 24 hours; cis/trans 50/50
Experimental: To 30 parts of each of Compounds (1) to (38) were added 50 parts of xylene and 20 parts of Sorpol SM-200 (a surfactant, trademark of Toho Chemical Co., Ltd.). The mixture was stirred well and dissolved to obtain a 30% emulsifiable concentrate.
The emulsifiable concentrate prepared from Compounds (7), (11), (12), (15), (17), (21) and (22) [Each compound is a mixture of cis- and trans-isomer in a ratio 50/50] in Formulation Example 5 were each diluted 300-fold with water. Then, each of the dilutions was sprayed over rice seedlings 25 days after sowing at the rate of 100 ml/pot. The pot was covered with a wire net and 15 green rice leafhoppers were released under the net. After 24 hours, the leafhoppers were examined for deaths. The mortality (%) was not less than 90% for each of Compounds (7), (11), (12), (15), (17), (21) and (22).

houseflies = experiment: Utility Example 3: settling mist method, mortality test against houseflies, oil preparations of Formulation Example 3; format: in vivo; conditions: oil preparation of Formulation Example 3 (0.1 part compound + 0.08 part permethrin per 100 parts), 24 hours; cis/trans 50/50
Experimental: To 0.1 part of each of Compounds (1) to (38) was added 0.08 part of permethrin, followed by the addition of a sufficient amount of kerosene to make 100 parts. The mixture was stirred to obtain an oil preparation of each compound.
By the settling mist method, a mortality test against houseflies was carried out using the oil preparations obtained in Formulation Example 3 from Compounds (1), (5), (7), (9), (11), (12), (15), (17) and (28) [Each compound is a mixture of cis- and trans-isomer in a ratio 50/50]. After 24 hours, the flies were examined for deaths. The mortality (%) was not less than 90% for each of Compounds (1), (5), (7), (9), (11), (12), (15), (17) and (28).

Compound | Mortality (%) (green rice leafhoppers) | Mortality (%) (houseflies)
CC1(C)C(CC(Cl)(Cl)Cl)C1C(=O)OC(C#N)c1cccc(Oc2ccc(Br)cc2)c1 (stereo not drawn) [(17), 3-(4-Bromophenoxy)-α-cyanobenzyl 2,2-dimethyl-3-(2,2,2-trichloroethyl)cyclopropanecarboxylate] | not less than 90% | –
C#CC(OC(=O)C1C(CC(Cl)(Cl)Cl)C1(C)C)c1cccc(Oc2ccc(Br)cc2)c1 (stereo not drawn) [(22), 3-(4-Bromophenoxy)-α-ethynylbenzyl 2,2-dimethyl-3-(2,2,2-trichloroethyl)cyclopropanecarboxylate] | not less than 90% | –
CC(Cl)(Cl)CC1C(C(=O)OC(C#N)c2cccc(Oc3ccccc3)c2)C1(C)C (stereo not drawn) [Compound (9), 3-Phenoxy-α-cyanobenzyl 2,2-dimethyl-3-(2,2-dichloropropyl)cyclopropanecarboxylate] | – | not less than 90%
